Reference: patent publication US20070043049A1, “Substituted heterocyclic diarylamine analogues” (Neurogen Corporation, priority 2003, published 2007)

Target: T1, human capsaicin receptor (Homo sapiens, UniProt Q8NER1)
T1 construct: pBK-CMV expression construct encoding the full length human capsaicin receptor; expressed in transfected cells
Test: Calcium mobilization assay, determination of antagonist activity (Example 6)
Type: cell-based
Settings: 50% decrease in fluorescence response of cells expressing human capsaicin receptor exposed to capsaicin
Protocol: A cDNA encoding full length human capsaicin receptor (SEQ ID NO:1, 2 or 3 of U.S. Pat. No. 6,482,611) was subcloned in the plasmid pBK-CMV (Stratagene, La Jolla, Calif.) for recombinant expression in mammalian cells.
Human embryonic kidney (HEK293) cells were transfected with the pBK-CMV expression construct encoding the full length human capsaicin receptor using standard methods. The transfected cells were selected for two weeks in media containing G418 (400 μg/ml) to obtain a pool of stably transfected cells. Independent clones were isolated from this pool by limiting dilution to obtain clonal stable cell lines for use in subsequent experiments.
Cells transfected with expression plasmids (as described in Example 4) and thereby expressing human capsaicin receptor are seeded and grown to 70-90% confluency in FALCON black-walled, clear-bottomed 96-well plates (#3904, BECTON-DICKINSON, Franklin Lakes, N.J.). The culture medium is emptied from the 96 well plates and FLUO-3 AM calcium sensitive dye (Molecular Probes, Eugene, Oreg.) is added to each well (dye solution: 1 mg FLUO-3 AM, 440 μL DMSO and 440 μl 20% pluronic acid in DMSO, diluted 1:250 in Krebs-Ringer HEPES (KRH) buffer (25 mM HEPES, 5 mM KCl, 0.96 mM NaH2PO4, 1 mM MgSO4, 2 mM CaCl2, 5 mM glucose, 1 mM probenecid, pH 7.4), 50 μl diluted solution per well). Plates are covered with aluminum foil and incubated at 37° C. for 1-2 hours in an environment containing 5% CO2. After the incubation, the dye is emptied from the plates, and the cells are washed once with KRH buffer, and resuspended in KRH buffer.
To measure the ability of a test compound to agonize or antagonize a calcium mobilization response in cells expressing capsaicin receptors to capsaicin or other vanilloid agonist, the EC50 of the agonist capsaicin is first determined. An additional 20 μl of KRH buffer and 1 μl DMSO is added to each well of cells, prepared as described above. 100 μl capsaicin in KRH buffer is automatically transferred by the FLIPR instrument to each well. Capsaicin-induced calcium mobilization is monitored using either FLUOROSKAN ASCENT (Labsystems; Franklin, Mass.) or FLIPR (fluorometric imaging plate reader system; Molecular Devices, Sunnyvale, Calif.) instruments. Data obtained between 30 and 60 seconds after agonist application are used to generate an 8-point concentration response curve, with final capsaicin concentrations of 1 nM to 3 μM. KALEIDAGRAPH software (Synergy Software, Reading, Pa.) is used to fit the data to the equation: y=a*(1/(1+(b/x)^c)) to determine the 50% excitatory concentration (EC50) for the response. In this equation, y is the maximum fluorescence signal, x is the concentration of the agonist or antagonist (in this case, capsaicin), a is the Emax, b corresponds to the EC50 value and c is the Hill coefficient. Determination of Agonist Activity
Test compounds are dissolved in DMSO, diluted in 20 μl KRH buffer so that the final concentration of test compounds in the assay well is between 1 μM and 5 μM, and added to cells prepared as described above. The 96 well plates containing prepared cells and test compounds are incubated in the dark, at room temperature for 0.5 to 6 hours. It is important that the incubation not continue beyond 6 hours. Just prior to determining the fluorescence response, 100 μl capsaicin in KRH buffer at twice the EC50 concentration determined as described above is automatically added by the FLIPR instrument to each well of the 96 well plate for a final sample volume of 200 μl and a final capsaicin concentration equal to the EC50. The final concentration of test compounds in the assay wells is between 1 μM and […]. […] The concentration of antagonist required to provide a 50% decrease, relative to the response observed in the presence of capsaicin and without antagonist, is the IC50 for the antagonist, and is preferably below 1 micromolar, 100 nanomolar, 10 nanomolar or 1 nanomolar.

T1 sequence (Q8NER1 whole entry): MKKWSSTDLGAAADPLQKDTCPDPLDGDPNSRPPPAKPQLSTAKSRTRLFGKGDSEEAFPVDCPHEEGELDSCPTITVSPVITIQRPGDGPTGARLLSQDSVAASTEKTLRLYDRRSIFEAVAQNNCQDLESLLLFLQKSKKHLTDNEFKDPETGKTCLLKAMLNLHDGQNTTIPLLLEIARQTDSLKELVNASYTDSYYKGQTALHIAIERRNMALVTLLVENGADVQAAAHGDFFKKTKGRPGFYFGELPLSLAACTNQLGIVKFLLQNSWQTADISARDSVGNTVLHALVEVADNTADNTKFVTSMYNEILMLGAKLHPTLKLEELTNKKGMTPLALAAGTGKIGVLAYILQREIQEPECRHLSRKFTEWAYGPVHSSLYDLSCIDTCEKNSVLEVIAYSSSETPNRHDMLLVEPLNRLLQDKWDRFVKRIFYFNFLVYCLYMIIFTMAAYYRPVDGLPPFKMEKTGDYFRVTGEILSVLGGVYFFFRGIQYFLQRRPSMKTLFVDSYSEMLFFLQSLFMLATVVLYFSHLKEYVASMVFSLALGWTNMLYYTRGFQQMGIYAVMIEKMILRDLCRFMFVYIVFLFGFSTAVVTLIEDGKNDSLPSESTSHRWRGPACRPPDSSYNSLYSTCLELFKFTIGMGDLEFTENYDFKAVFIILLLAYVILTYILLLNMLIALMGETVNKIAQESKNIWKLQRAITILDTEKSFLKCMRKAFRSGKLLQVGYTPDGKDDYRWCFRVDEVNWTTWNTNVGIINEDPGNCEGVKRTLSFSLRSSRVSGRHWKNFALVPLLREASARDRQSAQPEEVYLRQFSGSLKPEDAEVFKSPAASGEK

## C[C@@H]1CN(c2ncccc2Cl)CCN1c1nc(Nc2cccc(F)c2)nc(N2CCOCC2)n1 (stereo in doubt) [Compound 104, {4-[4-(3-Chloro-pyridin-2-yl)-2-methyl-piperazin-1-yl]-6-morpholin-4-yl-[1,3,5]triazin-2-yl}-(3-fluoro-phenyl)-amine]
  IC50: ≤ 1000 nM

## CC(C)c1ccc(-c2nc(Nc3ccc(C(F)(F)F)cc3)nc(N3CCN(c4ncccc4Cl)C[C@H]3C)n2)cc1 (stereo in doubt) [Compound 114, [4-[4-(3-Chloro-pyridin-2-yl)-2-methyl-piperazin-1-yl]-6-(4-isopropyl-phenyl)-[1,3,5]triazin-2-yl]-(4-trifluoromethyl-phenyl)-amine]
  IC50: ≤ 1000 nM

## C[C@@H]1CN(c2ncccc2Cl)CCN1c1cc(Nc2ccc(C(C)(C)C)cc2)ncn1 [Compound 1, (4-tert-Butyl-phenyl)-{6-[4-(3-chloro-pyridin-2-yl)-2-methyl-piperazin-1-yl]-pyrimidin-4-yl}-amine (R)]
  IC50: ≤ 1000 nM

## C[C@@H]1CN(c2ncccc2Cl)CCN1c1nc(Cl)nc(Nc2ccc(C(C)(C)C)cc2)n1 [Compound 2, (4-tert-Butyl-phenyl)-{4-chloro-6-[4-(3-chloro-pyridin-2-yl)-2-methyl-piperazin-1-yl]-[1,3,5]triazin-2-yl}-amine (R)]
  IC50: ≤ 1000 nM

## C[C@@H]1CN(c2ncccc2C(F)(F)F)CCN1c1nc(Cl)nc(Nc2ccc(C(C)(C)C)cc2)n1 [Compound 3, (4-tert-Butyl-phenyl)-{4-chloro-6-[2-methyl-4-(3-trifluoromethyl-pyridin-2-yl)-piperazin-1-yl]-[1,3,5]triazin-2-yl}-amine (R)]
  IC50: ≤ 1000 nM

## C[C@@H]1CN(c2ncccc2Cl)CCN1c1nc(Nc2ccc(C(C)(C)C)cc2)nc(OCc2ccccc2C(F)(F)F)n1 [Compound 5, (4-tert-Butyl-phenyl)-[4-[4-(3-chloro-pyridin-2-yl)-2-methyl-piperazin-1-yl]-6-(2-trifluoromethyl-benzyloxy)-[1,3,5]triazin-2-yl]-amine (R)]
  IC50: ≤ 1000 nM

## C[C@@H]1CN(c2ncccc2C(F)(F)F)CCN1c1nc(Nc2ccc(C(C)(C)C)cc2)nc(OCc2ccccc2C(F)(F)F)n1 [Compound 6, (4-tert-Butyl-phenyl)-[4-[2-methyl-4-(3-trifluoromethyl-pyridin-2-yl)-piperazin-1-yl]-6-(2-trifluoromethyl-benzyloxy)-[1,3,5]triazin-2-yl]-amine (R)]
  IC50: ≤ 1000 nM

## C[C@@H]1CN(c2ncccc2F)CCN1c1nc(Nc2ccc(C(C)(C)C)cc2)nc(OCc2ccccc2C(F)(F)F)n1 [Compound 7, (4-tert-Butyl-phenyl)-[4-[4-(3-fluoro-pyridin-2-yl)-2-methyl-piperazin-1-yl]-6-(2-trifluoromethyl-benzyloxy)-[1,3,5]triazin-2-yl]-amine (R)]
  IC50: ≤ 1000 nM

## C[C@@H]1CN(c2ncccc2Cl)CCN1c1nc(Nc2ccc(C(F)(F)F)cc2)nc(OCc2ccccc2C(F)(F)F)n1 [Compound 8, [4-[4-(3-Chloro-pyridin-2-yl)-2-methyl-piperazin-1-yl]-6-(2-trifluoromethyl-benzyloxy)-[1,3,5]triazin-2-yl]-(4-trifluoromethyl-phenyl)-amine (R)]
  IC50: ≤ 1000 nM

## C[C@@H]1CN(c2ncccc2C(F)(F)F)CCN1c1nc(Nc2ccc(C(F)(F)F)cc2)nc(OCc2ccccc2C(F)(F)F)n1 [Compound 9]
  IC50: ≤ 1000 nM

## C[C@@H]1CN(c2ncccc2F)CCN1c1nc(Nc2ccc(C(F)(F)F)cc2)nc(OCc2ccccc2C(F)(F)F)n1 [Compound 10, [4-[4-(3-Fluoro-pyridin-2-yl)-2-methyl-piperazin-1-yl]-6-(2-trifluoromethyl-benzyloxy)-[1,3,5]triazin-2-yl]-(4-trifluoromethyl-phenyl)-amine (R)]
  IC50: ≤ 1000 nM

## CC(C)(C)c1ccc(Nc2nc(OCc3ccccc3C(F)(F)F)nc(N3CCN(c4ccccn4)CC3)n2)cc1 [Compound 11, (4-tert-Butyl-phenyl)-[4-(4-pyridin-2-yl-piperazin-1-yl)-6-(2-trifluoromethyl-benzyloxy)-[1,3,5]triazin-2-yl]-amine]
  IC50: ≤ 1000 nM

## COc1ccccc1N1CCN(c2nc(Nc3ccc(C(C)(C)C)cc3)nc(OCc3ccccc3C(F)(F)F)n2)CC1 [Compound 12, (4-tert-Butyl-phenyl)-[4-[4-(2-methoxy-phenyl)-piperazin-1-yl]-6-(2-trifluoromethyl-benzyloxy)-[1,3,5]triazin-2-yl]-amine]
  IC50: ≤ 1000 nM

## C[C@H]1CN(c2ncccc2C(F)(F)F)CCN1c1nc(Cl)nc(Nc2ccc(C(F)(F)F)cc2)n1 [Compound 13, {4-Chloro-6-[2-methyl-4-(3-trifluoromethyl-pyridin-2-yl)-piperazin-1-yl]-[1,3,5]triazin-2-yl}-(4-trifluoromethyl-phenyl)-amine (S)]
  IC50: ≤ 1000 nM

## C[C@H]1CN(c2ncccc2C(F)(F)F)CCN1c1nc(Nc2ccc(C(F)(F)F)cc2)nc(-c2ccc(C(F)(F)F)cc2)n1 [Compound 14, [4-[2-Methyl-4-(3-trifluoromethyl-pyridin-2-yl)-piperazin-1-yl]-6-(4-trifluoromethyl-phenyl)-[1,3,5]triazin-2-yl]-(4-trifluoromethyl-phenyl)-amine (S)]
  IC50: ≤ 1000 nM

## CC(C)CCNc1nc(Nc2ccc(C(F)(F)F)cc2)nc(N2CCN(c3ncccc3C(F)(F)F)C[C@@H]2C)n1 [Compound 15, N-(3-Methyl-butyl)-6-[2-methyl-4-(3-trifluoromethyl-pyridin-2-yl)-piperazin-1-yl]-N′-(4-trifluoromethyl-phenyl)-[1,3,5]triazine-2,4-diamine (S)]
  IC50: ≤ 1000 nM

## C[C@H]1CN(c2ncccc2C(F)(F)F)CCN1c1nc(Nc2ccc(C(F)(F)F)cc2)nc(-c2ccccc2Cl)n1 [Compound 16, {4-(2-Chloro-phenyl)-6-[2-methyl-4-(3-trifluoromethyl-pyridin-2-yl)-piperazin-1-yl]-[1,3,5]triazin-2-yl}-(4-trifluoromethyl-phenyl)-amine (S)]
  IC50: ≤ 1000 nM

## C[C@@H]1CN(c2ncccc2Cl)CCN1c1nc(Cl)cc(Nc2ccc(C(F)(F)F)cc2)n1 [Compound 17, {6-Chloro-2-[4-(3-chloro-pyridin-2-yl)-2-methyl-piperazin-1-yl]-pyrimidin-4-yl}-(4-trifluoromethyl-phenyl)-amine (R)]
  IC50: ≤ 1000 nM

## C[C@@H]1CN(c2ncccc2Cl)CCN1c1nc(Nc2ccc(C(F)(F)F)cc2)nc(N(C)C)n1 [Compound 18, 6-[4-(3-Chloro-pyridin-2-yl)-2-methyl-piperazin-1-yl]-N,N-dimethyl-N′-(4-trifluoromethyl-phenyl)-[1,3,5]triazine-2,4-diamine (R)]
  IC50: ≤ 1000 nM

## CCCCNc1nc(Nc2ccc(C(F)(F)F)cc2)nc(N2CCN(c3ncccc3Cl)C[C@H]2C)n1 [Compound 19, N-Butyl-6-[4-(3-chloro-pyridin-2-yl)-2-methyl-piperazin-1-yl]-N′-(4-trifluoromethyl-phenyl)-[1,3,5]triazine-2,4-diamine (R)]
  IC50: ≤ 1000 nM

## CN(C)c1nc(Nc2ccc(C(F)(F)F)cc2)nc(N2CCN(c3ncccc3C(F)(F)F)CC2)n1 [Compound 20, N,N-Dimethyl-N′-(4-trifluoromethyl-phenyl)-6-[4-(3-trifluoromethyl-pyridin-2-yl)-piperazin-1-yl]-[1,3,5]triazine-2,4-diamine]
  IC50: ≤ 1000 nM

## CC(C)CCNc1nc(Nc2ccc(C(F)(F)F)cc2)nc(N2CCN(c3ncccc3C(F)(F)F)CC2)n1 [Compound 21, N-(3-Methyl-butyl)-N′-(4-trifluoromethyl-phenyl)-6-[4-(3-trifluoromethyl-pyridin-2-yl)-piperazin-1-yl]-[1,3,5]triazine-2,4-diamine]
  IC50: ≤ 1000 nM
